“Also recorded” adds a separate entry of the source. Where no end group is shown, it is not given here. [ ]: non-standard residue; d: D form. Phe(4-F) = N[C@@H](Cc1ccc(F)cc1)C(=O)O
Key:
full length human Hsp90 = experiment: 19F NMR R2 filter binding to Hsp90; parameters: 19F NMR signal change in presence of Hsp90 (binding): dose or concentration left out as unconfirmed; conditions: for 19F NMR signal change in presence of Hsp90 (binding): 19F R2 filter, peptides tested individually, A01
Description: (§1) All the NMR experiments have been recorded at 298° K with a Bruker FT NMR Avance III 600-MHz spectrometer equipped with a 5-mm CryoProbe™ QCI^1H/^19F-^13C/^15N-D quadruple resonance, a shielded z-gradient coil, and the automatic sample handling system such as a SAMPLEJET™ brand sampling system with temperature control.
(§2) ^19F NMR experiments are a well-recognized approach to study the interaction between small molecules or peptides and proteins. […] This is due to the large dynamic range defined as the difference of the NMR measured response in the free and protein-bound states. ^19F R2 filter NMR experiments are among the most sensitive techniques for weak binding detection. See Dalvit et al., Journal of American Chemical Society, 125, 7696-7703 (2003). The transverse relaxation rate R2 is a very sensitive parameter for these studies, due to the large Chemical Shift Anisotropy (CSA) of ^19F nucleus and to the large exchange contribution See Dalvit et al., Journal of American Chemical Society, 125, 7696-7703 (2003); the compounds/peptides that interact with the receptor will show a broadening and intensity reduction in their ^19F NMR signal in presence of the protein
(§3) The 5 mM stock solution peptides were prepared in 100% in DMSOd6. Solubility and purity of the peptides in PBS buffer pH 7.4, 10% D2O (for the lock signal) were checked by ^19F and ^1H NMR spectroscopy. 1D ^19F NMR experiments were recorded with proton decoupling with the Waltz-16 scheme during the acquisition period with an acquisition time of 0.95 s, a relaxation delay of 30 s. whereas 1D version of the NOESY (nuclear Overhauser effect spectroscopy) pulse sequence with H2O signal presaturation, a mixing time of 10 ms and a relaxation delay of 30 s was used for ^1H NMR experiments.
(§4) For the binding studies R2 filter experiments were recorded with the Carr-Purcell-Meibom-Gill scheme with a time interval of 23.5 ms between the 180° pulses with a loop of 2, an acquisition time of 0.95 s a D1 of 5 s and a number of scans of 512. All the ^19F chemical shifts are referenced to the CFCl3 signal in water.

c-Abl = c-Abl protein level by immunoblot in treated HEK293 cells; type: cell-based, human; conditions: 10 μM A01 or A02 with and without TAT, 36 hours
Description: (§5) Human embryonic kidney (HEK293) and 786-O cells were acquired from the American Type Culture Collection (ATCC). HEK293 cells were grown in Dulbecco's Modified Eagle Medium (DMEM, Millipore-Sigma) and 786-O cells were grown in Roswell Park Memorial Institute (RPMI-1640, Millipore-Sigma) medium supplemented with 10% fetal bovine serum (FBS, Millipore-Sigma) in a CellQ incubator (Panasonic Healthcare) at 37° C. in 5% CO2.
(§6) Cultured cells were seeded 24 h prior to treatment. […]
(§7) Protein extraction from mammalian cells was carried out using methods previously described. See Woodford et al., Cell Reports, 14, 872-884 (2016). For immunoprecipitation, protein lysates were incubated with Hsp90 antibody for 2 h followed by incubation with protein G agarose (Qiagen) for 2 h at 4° C. Immunopellets were washed 4 times with fresh lysis buffer (20 mM Tris (pH7.4), 100 mM NaCl, 1 mM MgCl2, 0.1% NP40, protease inhibitor cocktail (Roche), and PhosSTOP (Roche)) and eluted with 5× Laemmli buffer. Precipitated proteins were separated by SDS-PAGE and transferred to nitrocellulose membranes. Co-immunoprecipitated proteins were detected by immunoblotting with the indicated antibodies, diluted in 5% non-fat dry milk reconstituted in TBST.

Akt = experiment: Immunoblot of unrelated client Akt in HEK293 cells; type: cell-based, human; conditions: 10 μM, 36 hours, selectivity control
Description: as §5, §6, §7

c-Abl-Hsp90 interaction = experiment: Hsp90 immunoprecipitation, c-Abl association in HEK293 cells; type: cell-based, human; conditions: 10 μM, 36 hours, IP of endogenous Hsp90
Description: as §5, §6, §7

Hsp90α-FLAG = Hsp90α-FLAG (Homo sapiens, UniProt P07900); experiment: Biotinylated peptide streptavidin pulldown of Hsp90α; type: binding; conditions: Hsp90α vs Hsp90β; biotinylated peptide pulldown
Description: Total cell lysates prepared as described above were incubated with the indicated amounts of biotinylated peptide at 4° C. for 1 h. Streptavidin agarose beads (ThermoScientific) were added and incubated 1 additional hour with gentle rotation. Bound Hsp90 was detected by immunoblotting as described herein.

Aha1-Hsp90 complex = experiment: Hsp90 immunoprecipitation, Aha1-Hsp90 complex in HEK293 cells; type: cell-based, human; conditions: 10 μM, 36 hours
Description: as §5, §6, §7

c-Src = experiment: Immunoblot of unrelated client c-Src in HEK293 cells; type: cell-based, human; conditions: 10 μM, 36 hours, selectivity control
Description: as §5, §6, §7

[1] = target: Human Serum Albumin (HSA) (Homo sapiens, UniProt P02768); experiment: 19F NMR control for non-specific binding to HSA; conditions: 40 mM A01, A02 with 10 mM HSA
Description: as §1, §2, §3, §4

Cdk4 = experiment: Immunoblot of unrelated client Cdk4 in HEK293 cells; type: cell-based, human; conditions: 10 μM, 36 hours, selectivity control
Description: as §5, §6, §7

Cdc37 = target: T1, Cdc37 (Homo sapiens, UniProt Q16543); experiment: 19F NMR R2 filter binding to Cdc37; parameters: dose or concentration left out as unconfirmed
T1 sequence (Q16543 1-378): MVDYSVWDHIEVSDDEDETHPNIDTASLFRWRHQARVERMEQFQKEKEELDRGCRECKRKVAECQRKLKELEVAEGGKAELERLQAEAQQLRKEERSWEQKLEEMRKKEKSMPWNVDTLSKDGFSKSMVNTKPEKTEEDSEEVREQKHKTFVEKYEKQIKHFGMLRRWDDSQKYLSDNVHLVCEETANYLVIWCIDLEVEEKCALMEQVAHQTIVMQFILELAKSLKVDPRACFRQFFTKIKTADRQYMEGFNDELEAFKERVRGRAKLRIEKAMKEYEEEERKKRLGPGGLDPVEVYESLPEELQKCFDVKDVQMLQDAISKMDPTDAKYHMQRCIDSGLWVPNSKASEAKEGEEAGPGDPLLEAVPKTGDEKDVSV
Description: as §1, §2, §3, §4

GR:Hsp90 = experiment: GR dissociation from Hsp90 in 786-O cells; type: cell-based
Description: as §5
Cultured cells were seeded 24 h prior to treatment. Peptides were added to cells at 50% confluency at the indicated concentrations and incubated for 24 h, followed by protein extraction as described below.
as §7

[2] = tested on: Hsp90 chaperone complexes (Hsp90, Cdc37, Aha1); experiment: 19F NMR binding to proteins of the Hsp90 chaperone system, single and mixed peptides
Description: as §1
(§8) ^19F NMR experiments are a well-recognized approach to study the interaction between small molecules or peptides and proteins. […] This is due to the large dynamic range defined as the difference of the NMR measured response in the free and protein-bound states. ^19F R2 filter NMR experiments are among the most sensitive techniques for weak binding detection. […]
(§9) The 5 mM stock solution peptides were prepared in 100% in DMSOd6. […] 1D ^19F NMR experiments were recorded with proton decoupling with the Waltz-16 scheme during the acquisition period with an acquisition time of 0.95 s, a relaxation delay of 30 s. whereas 1D version of the NOESY (nuclear Overhauser effect spectroscopy) pulse sequence with H2O signal presaturation, a mixing time of 10 ms and a relaxation delay of 30 s was used for ^1H NMR experiments.
(§10) For the binding studies R2 filter experiments were recorded with the Carr-Purcell-Meibom-Gill scheme with a time interval of 23.5 ms between the 180° pulses with a loop of 2, an acquisition time of 0.95 s a D1 of 5 s and a number of scans of 512. […]

Aha1 [3] = target: Aha1 (Homo sapiens, UniProt O95433); experiment: 19F NMR R2 filter binding to Aha1; conditions: cAbl peptides at 10 mM
Description: as §1, §8, §9, §10

Human Serum Albumin = target: T2, Human Serum Albumin (human, UniProt P02768 25-609); experiment: 19F NMR
T2 construct: also called HSA

Aha1 [4] = target: T3, Aha1 (UniProt O95433 1-338, limits assumed); experiment: 19F NMR R2 filter
T3 construct: Protein used in the 19F NMR experiments
T3 sequence (O95433 whole entry): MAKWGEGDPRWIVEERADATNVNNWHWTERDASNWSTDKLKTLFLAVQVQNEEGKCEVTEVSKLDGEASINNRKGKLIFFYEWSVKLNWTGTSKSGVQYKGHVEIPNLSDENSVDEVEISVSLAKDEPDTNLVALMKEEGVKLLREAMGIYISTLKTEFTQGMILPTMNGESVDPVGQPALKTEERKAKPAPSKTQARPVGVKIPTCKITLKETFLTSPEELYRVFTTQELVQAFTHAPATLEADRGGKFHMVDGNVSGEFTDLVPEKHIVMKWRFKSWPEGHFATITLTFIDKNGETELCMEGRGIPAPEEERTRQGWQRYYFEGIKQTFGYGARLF

Aha1 (Homo sapiens, UniProt O95433), sequence (O95433 whole entry, species assumed): as the sequence (O95433 whole entry) above

## F(F)GGSPYPGIDLSQVYELLEK ([Phe(4-F)]GGSPYPGIDLSQVYELLEK) [A02]
Full length human Hsp90; 19F NMR, peptides mixed
  binding to Hsp90 when A01 and A02 are mixed: continue to bind to Hsp90 even when they are mixed
Full length human Hsp90
  19F NMR signal change in presence of Hsp90 (binding): decrease in the presence of Hsp90, indicating peptide-protein binding
c-Abl
  c-Abl protein levels: decrease of c-Abl protein levels
Akt
  Akt stability or activity: neither the related kinase c-Src nor the client kinases Cdk4 or Akt showed a defect in stability or activity
c-Abl-Hsp90 interaction
  dissociation of c-Abl from Hsp90: dissociation of c-Abl from Hsp90
Hsp90α-FLAG
  Hsp90 isoform specificity: neither peptide demonstrates isoform specificity
Aha1-Hsp90 complex
  Aha1-Hsp90 complex formation: decreased Aha1-Hsp90 complex formation
c-Src
  c-Src stability or activity: neither the related kinase c-Src nor the client kinases Cdk4 or Akt showed a defect in stability or activity
[1]
  binding interaction with HSA by 19F NMR: neither A01 nor A02 showed binding interaction with HSA
[1]; listed as AblO2
  binding interaction with HSA by 19F NMR: do not interact with HSA
Cdk4
  Cdk4 stability or activity: neither the related kinase c-Src nor the client kinases Cdk4 or Akt showed a defect in stability or activity

## FGTVYKGKWGGGGF(F)STKPQLAGGGNVTAPTPQ (FGTVYKGKWGGGG[Phe(4-F)]STKPQLAGGGNVTAPTPQ) [B-Raf-02]
Cdc37
  binding to Cdc37 by 19F NMR: bound to Cdc37
Full length human Hsp90
  19F NMR signal change in presence of Hsp90 (binding): no or very weak interaction
[1]
  binding interaction with HSA by 19F NMR: no interactions were detected
[1]; listed as Braf02-pep
  binding interaction with HSA by 19F NMR: do not interact with HSA

## GYSTKPQLAGGGNVTAPTPQGF(F)QHSGS (GYSTKPQLAGGGNVTAPTPQG[Phe(4-F)]QHSGS) [B-Raf-01]
Full length human Hsp90
  19F NMR signal change in presence of Hsp90 (binding): no or very weak interaction
[1]
  binding interaction with HSA by 19F NMR: no interactions were detected
[1]; listed as Braf01-pep
  binding interaction with HSA by 19F NMR: do not interact with HSA

## TLPCGGTWRIMTGIE F(F)PEMLA (TLPCGGTWRIMTGIE[Phe(4-F)]PEMLA) [GR-01, glucocorticoid receptor mimic peptide]
GR:Hsp90
  GR dissociation from Hsp90: showed GR dissociation from Hsp90

## YAGYDSSVPDSTWRIMTTLNMGGF(F)PEMLA (YAGYDSSVPDSTWRIMTTLNMGG[Phe(4-F)]PEMLA) [GR-02, glucocorticoid receptor mimic peptide]
Cdc37
  binding to Cdc37 by 19F NMR: highest effect on Cdc37; also recorded: binding effect is higher on CDC37
GR:Hsp90
  GR dissociation from Hsp90: showed GR dissociation from Hsp90
Full length human Hsp90
  19F NMR signal change in presence of Hsp90 (binding): bound to all of the tested proteins
[2]; Hsp90, Cdc37, Aha1
  binding to members of the Hsp90 chaperone complex by 19F NMR: binds to all the protein
[2]; peptides mixed together and added to protein solution
  competition among peptides when mixed (19F NMR signal variation vs single peptide): No significant difference
Aha1 [3]
  binding to Aha1 by 19F NMR: bound to all of the tested proteins

## FGTVYKGKWGGGG[Phe(4-F)]STKPQLAGGGNVTAPTPQ (also called Braf02-pep) [B-Raf-02]
Human Serum Albumin
  binding result: no binding

## [Phe(4-F)]GGSPYPGIDLSQVYELLEK (also called peptide A02; Abl02) [A02]
Human Serum Albumin
  binding result: no binding (tested: 40 mM A02 with 10 mM HSA)

## LGGGQ[Phe(4-F)]GEVYGGVAVKTLGGGEFLDEAAVMK (also called peptide A01; Abl01) [A01]
Human Serum Albumin
  binding result: no binding (tested: 40 mM A01 with 10 mM HSA)
Aha1 [4]
  binding result: no binding (tested: 10 mM of each cAbl peptide)

## GYSTKPQLAGGGNVTAPTPQG[Phe(4-F)]QHSGS (also called Braf01-pep) [B-Raf-01]
Human Serum Albumin
  binding result: no binding

— patent publication US20210214734A1, “METHODS FOR SELECTIVELY INHIBITING MOLECULAR CHAPERONE CLIENTS AND COMPOSITIONS FOR USE THEREOF” (Research Foundation for the State University of New York, priority 2020, published 2021)
